The results in this text go back to ChEMBL document CHEMBL3856280, “Targeting the HSP60/10 chaperonin systems of Trypanosoma brucei as a strategy for treating African sleeping sickness” (Bioorg Med Chem Lett, 2016).

Bounds are passed on as bounds.

Data set [1] is described as follows: Inhibition of pig heart native MDH reporter reaction after 20 to 40 mins by fluorescence based assay. Further details: species or system Sus scrofa.
Data set [2] deals with Trypanosoma brucei brucei. As to the kind of experiment: Antitrypanosomal activity against Trypanosoma brucei brucei Lister 427 VSG 221 [TetR T7RNAP] transgenic bloodstream forms assessed as reduction in cell viability after 48 hrs by alamar blue assay. Type of data set: functional. Particulars: Lister 427 VSG 221, 48 h. In general terms: Alamar Blue is a resazurin reagent that responds to reducing activity.

In data set [3] the target is T1, E. coli GroEL/ES (Escherichia coli, UniProt P0A6F5). The data set can be described thus: Inhibition of Escherichia coli GroEL/GroES-ATPase activity expressed in Escherichia coli DH5alpha/BL21 (DE3) assessed as inhibition of denatured MDH refolding preincubated for 10 mins followed by ATP addition measured after 20 to 40 mins by malachite green dye based fluorescence assay.
T1 sequence (P0A6F5 whole entry, looked up): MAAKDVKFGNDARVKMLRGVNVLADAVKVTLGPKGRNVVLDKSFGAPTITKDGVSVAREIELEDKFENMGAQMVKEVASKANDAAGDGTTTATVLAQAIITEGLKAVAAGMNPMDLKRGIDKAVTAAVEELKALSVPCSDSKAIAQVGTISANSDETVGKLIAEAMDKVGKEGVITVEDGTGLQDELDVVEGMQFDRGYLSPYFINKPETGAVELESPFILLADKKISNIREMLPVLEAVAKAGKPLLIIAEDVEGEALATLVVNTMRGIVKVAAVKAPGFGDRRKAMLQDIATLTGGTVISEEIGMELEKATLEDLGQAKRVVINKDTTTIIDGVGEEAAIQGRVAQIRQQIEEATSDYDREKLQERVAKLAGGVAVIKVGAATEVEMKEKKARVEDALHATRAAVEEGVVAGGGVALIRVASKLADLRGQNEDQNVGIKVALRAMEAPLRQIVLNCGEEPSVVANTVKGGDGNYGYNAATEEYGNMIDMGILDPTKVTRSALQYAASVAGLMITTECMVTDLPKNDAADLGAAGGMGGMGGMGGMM

The nature of data set [4]: Cytotoxicity against HEK293 cells assessed as reduction in cell viability after 48 hrs by alamar blue assay. Type of data set: toxicity, cell-based. The note with it: human.
Data set [5] in a line: Cytotoxicity against human THLE3 cells assessed as reduction in cell viability after 48 hrs by alamar blue assay. Type of data set: toxicity, cell-based.
Data set [6] deals with T1, E. coli GroEL/ES. As to the kind of experiment: Inhibition of Escherichia coli GroEL/GroES expressed in Escherichia coli DH5alpha/BL21 (DE3) assessed as inhibition of denatured MDH refolding preincubated for 10 mins followed by ATP addition measured after 20 to 40 mins by fluorescence based assay.
Data set [7] addresses T2, HSP60/HSP10 (Homo sapiens, UniProt P10809). As to the kind of experiment: Inhibition of human mitochondrial HSP60/HSP10 expressed in Escherichia coli DH5alpha/BL21 (DE3) assessed as inhibition of denatured MDH refolding preincubated for 10 mins followed by ATP addition measured after 40 to 60 mins by fluorescence based assay.
Data set [8] has as its target T2, HSP60/HSP10. The data set can be described thus: Inhibition of human mitochondrial HSP60/HSP10-ATPase activity expressed in Escherichia coli DH5alpha/BL21 (DE3) assessed as inhibition of denatured MDH refolding preincubated for 10 mins followed by ATP addition measured after 40 to 60 mins by malachite green dye based fluorescence assay.

T2 sequence (P10809 whole entry): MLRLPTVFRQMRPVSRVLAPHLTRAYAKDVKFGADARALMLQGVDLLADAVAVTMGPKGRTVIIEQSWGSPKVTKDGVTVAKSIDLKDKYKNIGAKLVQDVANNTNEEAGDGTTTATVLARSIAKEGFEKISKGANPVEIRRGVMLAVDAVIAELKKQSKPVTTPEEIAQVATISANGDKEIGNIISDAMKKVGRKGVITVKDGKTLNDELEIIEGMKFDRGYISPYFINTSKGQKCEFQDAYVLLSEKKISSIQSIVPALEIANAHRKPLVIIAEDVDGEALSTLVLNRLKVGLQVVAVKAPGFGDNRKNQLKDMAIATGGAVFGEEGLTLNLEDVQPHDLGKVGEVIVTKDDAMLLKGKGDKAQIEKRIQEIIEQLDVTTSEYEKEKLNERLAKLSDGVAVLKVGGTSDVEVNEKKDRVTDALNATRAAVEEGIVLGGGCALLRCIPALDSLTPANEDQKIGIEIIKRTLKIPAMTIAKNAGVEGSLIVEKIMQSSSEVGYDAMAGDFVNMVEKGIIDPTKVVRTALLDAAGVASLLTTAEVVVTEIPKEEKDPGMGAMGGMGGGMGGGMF
T2 sequence (P61604 whole entry, further chain): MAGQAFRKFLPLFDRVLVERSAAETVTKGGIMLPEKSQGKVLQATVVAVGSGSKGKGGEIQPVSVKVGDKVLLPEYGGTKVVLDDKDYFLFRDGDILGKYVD

The term IC50 denotes the concentration that gives 50% inhibition. A word on the EC50: it is the concentration that produces a half-maximal response. For `Cc1cccc(S(=O)(=O)Nc2ccc(-c3nc4cc(NS(=O)(=O)c5cccc(C)c5)ccc4o3)cc2)c1`, the IC50 is more than 63 µM in data set [1]; more than 250 µM in data set [3]; 35 µM in data set [6]; more than 100 µM in data set [7]; more than 250 µM in data set [8]. For the same compound, the EC50 in data set [2] is 4.9 µM. The EC50 at 48 h in data set [4] was 65 µM; in data set [5] it was 18 µM.

On to `O=S(=O)(Nc1ccc(-c2nc3cc(NS(=O)(=O)c4ccccc4C(F)(F)F)ccc3o2)cc1)c1ccccc1C(F)(F)F`, for which the IC50 in data set [1] is more than 63 µM; in data set [3] it was 21 µM; in data set [6], 25 µM; in data set [7], more than 100 µM; in data set [8], more than 250 µM. Also, the EC50 in data set [2] amounted to 28 µM. In addition, the EC50 at 48 h is 66 µM in data set [4] and 50 µM in data set [5].

With `N#Cc1ccc(S(=O)(=O)Nc2ccc(-c3nc4cc(NS(=O)(=O)c5ccc(C#N)cc5)ccc4o3)cc2)cc1`, the IC50 in data set [1] was more than 63 µM; in data set [3], more than 250 µM; in data set [6] it was 37 µM; in data set [7] it was 64 µM; in data set [8], more than 250 µM. In addition, the EC50 in data set [2] amounted to 16 µM. Besides, the EC50 at 48 h in data set [4] turned out to be 45 µM; in data set [5] it was 79 µM.

Turning to `O=S(=O)(Nc1ccc(-c2nc3cc(NS(=O)(=O)c4ccc(C(F)(F)F)cc4)ccc3o2)cc1)c1ccc(C(F)(F)F)cc1`, the IC50 in data set [1] is more than 63 µM; in data set [3], more than 250 µM; in data set [6], 35 µM; in data set [7], 61 µM; in data set [8], more than 250 µM. In data set [2], the EC50 came out at 4.1 µM. Also, the EC50 at 48 h was more than 100 µM in data set [4] and 21 µM in data set [5].

`N#Cc1ccccc1S(=O)(=O)Nc1ccc(-c2nc3cc(NS(=O)(=O)c4ccccc4C#N)ccc3o2)cc1`: the IC50 was more than 63 µM in data set [1]; more than 250 µM in data set [3]; 32 µM in data set [6]; 86 µM in data set [7]; 193 µM in data set [8]. For the same compound, the EC50 in data set [2] worked out at 23 µM. For the same compound, the EC50 at 48 h in data set [4] was found to be 74 µM; in data set [5] it was 93 µM.

In the case of `COc1cccc(S(=O)(=O)Nc2ccc(-c3nc4cc(NS(=O)(=O)c5cccc(OC)c5)ccc4o3)cc2)c1`, the IC50 in data set [1] is more than 63 µM; in data set [3] it was more than 250 µM; in data set [6], 48 µM; in data set [7] it was more than 100 µM; in data set [8], more than 250 µM. Moreover, the EC50 in data set [2] came to 5.1 µM. In addition, the EC50 at 48 h in data set [4] worked out at 28 µM; in data set [5], 15 µM.

As to `O=[N+]([O-])c1cccc(S(=O)(=O)Nc2ccc(-c3nc4cc(NS(=O)(=O)c5cccc([N+](=O)[O-])c5)ccc4o3)cc2)c1`, the IC50 in data set [1] is more than 63 µM; in data set [3], more than 250 µM; in data set [6], 11 µM; in data set [7], 60 µM; in data set [8], more than 250 µM. For the same compound, in data set [2], the EC50 came to 11 µM. The EC50 at 48 h in data set [4] is 46 µM; in data set [5], 37 µM.

Consider `COC(=O)c1cccc(S(=O)(=O)Nc2ccc(-c3nc4cc(NS(=O)(=O)c5cccc(C(=O)OC)c5)ccc4o3)cc2)c1`, for which the IC50 was more than 63 µM in data set [1]; more than 250 µM in data set [3]; 11 µM in data set [6]; 95 µM in data set [7]; more than 250 µM in data set [8]. In addition, in data set [2], the EC50 was more than 42 µM. Also, the EC50 at 48 h in data set [4] is more than 100 µM; in data set [5], 49 µM.

Regarding `N#Cc1cccc(S(=O)(=O)Nc2ccc(-c3nc4cc(NS(=O)(=O)c5cccc(C#N)c5)ccc4o3)cc2)c1`, the IC50 in data set [1] is more than 63 µM; in data set [3], 4.1 µM; in data set [6] it was 7.6 µM; in data set [7], 91 µM; in data set [8], more than 250 µM. The EC50 in data set [2] came to 39 µM. Also, the EC50 at 48 h in data set [4] is 45 µM; in data set [5], 91 µM.

`O=S(=O)(Nc1ccc(-c2nc3cc(NS(=O)(=O)c4cccc(O)c4)ccc3o2)cc1)c1cccc(O)c1`: the IC50 in data set [1] came to 47 µM; in data set [3], 0.79 µM; in data set [6] it was 0.9 µM; in data set [7], 19 µM; in data set [8], 61 µM. In addition, the concentration for a half-maximal effect (EC50) in data set [2] came to 8.9 µM. Moreover, the results for the EC50 at 48 h in data set [4] and in data set [5] were 36 µM and 37 µM, respectively.

Take `Nc1ccc(S(=O)(=O)Nc2ccc(-c3nc4cc(NS(=O)(=O)c5ccc(N)cc5)ccc4o3)cc2)cc1`: the IC50 in data set [1] is more than 63 µM; in data set [3] it was 1.7 µM; in data set [6], 1.4 µM; in data set [7], 68 µM; in data set [8], 224 µM. Besides, the EC50 in data set [2] is 22 µM. The EC50 at 48 h in data set [4] was found to be 59 µM; in data set [5] it was 38 µM.

For `COc1ccc(S(=O)(=O)Nc2ccc(-c3nc4cc(NS(=O)(=O)c5ccc(OC)cc5)ccc4o3)cc2)cc1`, the half-maximal inhibitory concentration (IC50) in data set [1] is more than 63 µM; in data set [3], 84 µM; in data set [6], 36 µM; in data set [7], more than 100 µM; in data set [8], more than 250 µM. In addition, the concentration for a half-maximal effect (EC50) in data set [2] came out at 3.3 µM. Moreover, the results for the EC50 at 48 h in data set [4] and in data set [5] were 88 µM and more than 100 µM, respectively.

Turning to `Cc1ccccc1S(=O)(=O)Nc1ccc(-c2nc3cc(NS(=O)(=O)c4ccccc4C)ccc3o2)cc1`, the IC50 in data set [1] is more than 63 µM; in data set [3] it was 194 µM; in data set [6], more than 100 µM; in data set [7] it was more than 100 µM; in data set [8], more than 250 µM. For the same compound, the EC50 in data set [2] amounted to 1.8 µM. The figures for the EC50 at 48 h in data set [4] and in data set [5] were 25 µM and 17 µM, respectively.

As to `Nc1ccccc1S(=O)(=O)Nc1ccc(-c2nc3cc(NS(=O)(=O)c4ccccc4N)ccc3o2)cc1`, the IC50 was more than 63 µM in data set [1]; more than 250 µM in data set [3]; 10 µM in data set [6]; more than 100 µM in data set [7]; more than 250 µM in data set [8]. In addition, in data set [2], the EC50 was determined as 3.3 µM. Moreover, the EC50 at 48 h in data set [4] is 14 µM; in data set [5] it was 18 µM.

For `O=[N+]([O-])c1ccc(S(=O)(=O)Nc2ccc(-c3nc4cc(NS(=O)(=O)c5ccc([N+](=O)[O-])cc5)ccc4o3)cc2)cc1`, the IC50 was more than 63 µM in data set [1]; more than 250 µM in data set [3]; 26 µM in data set [6]; 65 µM in data set [7]; more than 250 µM in data set [8]. Further, the EC50 in data set [2] came to 15 µM. The results for the EC50 at 48 h in data set [4] and in data set [5] were 59 µM and 36 µM, respectively.

As to `COC(=O)c1ccccc1S(=O)(=O)Nc1ccc(-c2nc3cc(NS(=O)(=O)c4ccccc4C(=O)OC)ccc3o2)cc1`, the IC50 in data set [1] is more than 63 µM; in data set [3], 53 µM; in data set [6] it was 36 µM; in data set [7], more than 100 µM; in data set [8], more than 250 µM. The EC50 in data set [2] was 28 µM. The concentration for a half-maximal effect (EC50) at 48 h in data set [4] and in data set [5] was more than 100 µM in each case.

On to `Nc1cccc(S(=O)(=O)Nc2ccc(-c3nc4cc(NS(=O)(=O)c5cccc(N)c5)ccc4o3)cc2)c1`, for which the IC50 in data set [1] is more than 63 µM; in data set [3], 9.6 µM; in data set [6] it was 2.8 µM; in data set [7], 87 µM; in data set [8], 127 µM. Besides, the EC50 in data set [2] was 15 µM. In addition, the values for the EC50 at 48 h in data set [4] and in data set [5] were 58 µM and 30 µM, respectively.

For `O=[N+]([O-])c1ccccc1S(=O)(=O)Nc1ccc(-c2nc3cc(NS(=O)(=O)c4ccccc4[N+](=O)[O-])ccc3o2)cc1`, the IC50 is more than 63 µM in data set [1]; 3.1 µM in data set [3]; 3.6 µM in data set [6]; 75 µM in data set [7]; 194 µM in data set [8]. The EC50 in data set [2] was more than 42 µM. Moreover, the EC50 at 48 h in data set [4] came to 60 µM; in data set [5], 93 µM.

Regarding `O=S(=O)(Nc1ccc(-c2nc3cc(NS(=O)(=O)c4cccc(C(F)(F)F)c4)ccc3o2)cc1)c1cccc(C(F)(F)F)c1`, the IC50 was more than 63 µM in data set [1]; 216 µM in data set [3]; 15 µM in data set [6]; more than 100 µM in data set [7]; more than 250 µM in data set [8]. Moreover, the EC50 in data set [2] was found to be 4.8 µM. Besides, the EC50 at 48 h in data set [4] is 15 µM; in data set [5], 19 µM.

As to `COc1ccccc1S(=O)(=O)Nc1ccc(-c2nc3cc(NS(=O)(=O)c4ccccc4OC)ccc3o2)cc1`, the IC50 was more than 63 µM in data set [1]; more than 250 µM in data set [3]; 69 µM in data set [6]; more than 100 µM in data set [7]; more than 250 µM in data set [8]. Besides, the EC50 in data set [2] amounted to 2.7 µM. For the same compound, the EC50 at 48 h in data set [4] was 79 µM; in data set [5] it was more than 100 µM.

Consider `O=S(=O)(Nc1ccc(-c2nc3cc(NS(=O)(=O)c4ccc(O)cc4)ccc3o2)cc1)c1ccc(O)cc1`, for which the IC50 stood at 50 µM in data set [1]; 0.31 µM in data set [3]; 0.34 µM in data set [6]; 11 µM in data set [7]; 59 µM in data set [8]. In addition, in data set [2], the EC50 came to 21 µM. For the same compound, the EC50 at 48 h turned out to be 38 µM in data set [4] and 41 µM in data set [5].
